# ChEMBL document CHEMBL1667837, “Structure and property based design, synthesis and biological evaluation of γ-lactam based HDAC inhibitors” (Bioorg Med Chem Lett, 2011)
# Key:
# [1] = system: ACHN; test: Cytotoxicity against human ACHN cells; format: functional
# [2] = Inhibition of HDAC by fluorescence assay
# [3] = system: NCI-H23; test: Cytotoxicity against human NCI-H23 cells; format: functional
# [4] = system: MDA-MB-231; test: Cytotoxicity against human MDA-MB-231 cells; format: functional
# [5] = system: LOX IMVI; test: Cytotoxicity against human LOXIMVI cells; format: functional
# [6] = system: PC-3; test: Cytotoxicity against human PC3 cells; format: functional
# [7] = system: HCT-15; test: Cytotoxicity against human HCT15 cells; format: functional
# [8] = system: NUGC-3; test: Cytotoxicity against human NUGC3 cells; format: functional
# [9] = Apparent permeability across human Caco2 cells; format: ADME, cell-based; details: Caco-2
# [10] = Metabolic stability in ICR mouse liver microsomes assessed as compound remaining at 1 uM after 60 mins in absence of NADPH; format: ADME, Microsome; details: read-out: Stability
# [11] = Metabolic stability in ICR mouse liver microsomes assessed as compound remaining at 1 uM after 60 mins in presence of NADPH; format: ADME, Microsome; details: read-out: Stability
# [12] = Inhibition of HDAC assessed as increase of histone H3 acetylation
# [13] = Inhibition of HDAC assessed as increase of histone H4 acetylation
# [14] = Metabolic stability in ICR mouse liver microsomes assessed as compound remaining at 1 uM after 60 mins in presence of buffer; format: ADME, Microsome; details: read-out: Stability
# [15] = Half life in BALB/c mouse at 20 mg/kg, po; format: ADME, organism-based; parameters: dose 20 mg/kg, route oral; details: in vivo
# [16] = biological target: Histone deacetylase 1 (Homo sapiens, UniProt Q13547); test: Inhibition of HDAC1 by fluorescence assay
# [17] = Volume of distribution at steady state in BALB/c mouse at 5 mg/kg, iv; format: ADME, organism-based; parameters: dose 5 mg/kg, route intravenous; details: in vivo, read-out: Vdss
# [18] = AUC (0 to infinity) in BALB/c mouse at 5 mg/kg, iv; format: ADME, organism-based; parameters: time infinity, dose 5 mg/kg, route intravenous; details: plasma
# [19] = biological target: T1, Protein deacetylase HDAC6 (Homo sapiens, UniProt Q9UBN7)
# T1 sequence (Q9UBN7 whole entry): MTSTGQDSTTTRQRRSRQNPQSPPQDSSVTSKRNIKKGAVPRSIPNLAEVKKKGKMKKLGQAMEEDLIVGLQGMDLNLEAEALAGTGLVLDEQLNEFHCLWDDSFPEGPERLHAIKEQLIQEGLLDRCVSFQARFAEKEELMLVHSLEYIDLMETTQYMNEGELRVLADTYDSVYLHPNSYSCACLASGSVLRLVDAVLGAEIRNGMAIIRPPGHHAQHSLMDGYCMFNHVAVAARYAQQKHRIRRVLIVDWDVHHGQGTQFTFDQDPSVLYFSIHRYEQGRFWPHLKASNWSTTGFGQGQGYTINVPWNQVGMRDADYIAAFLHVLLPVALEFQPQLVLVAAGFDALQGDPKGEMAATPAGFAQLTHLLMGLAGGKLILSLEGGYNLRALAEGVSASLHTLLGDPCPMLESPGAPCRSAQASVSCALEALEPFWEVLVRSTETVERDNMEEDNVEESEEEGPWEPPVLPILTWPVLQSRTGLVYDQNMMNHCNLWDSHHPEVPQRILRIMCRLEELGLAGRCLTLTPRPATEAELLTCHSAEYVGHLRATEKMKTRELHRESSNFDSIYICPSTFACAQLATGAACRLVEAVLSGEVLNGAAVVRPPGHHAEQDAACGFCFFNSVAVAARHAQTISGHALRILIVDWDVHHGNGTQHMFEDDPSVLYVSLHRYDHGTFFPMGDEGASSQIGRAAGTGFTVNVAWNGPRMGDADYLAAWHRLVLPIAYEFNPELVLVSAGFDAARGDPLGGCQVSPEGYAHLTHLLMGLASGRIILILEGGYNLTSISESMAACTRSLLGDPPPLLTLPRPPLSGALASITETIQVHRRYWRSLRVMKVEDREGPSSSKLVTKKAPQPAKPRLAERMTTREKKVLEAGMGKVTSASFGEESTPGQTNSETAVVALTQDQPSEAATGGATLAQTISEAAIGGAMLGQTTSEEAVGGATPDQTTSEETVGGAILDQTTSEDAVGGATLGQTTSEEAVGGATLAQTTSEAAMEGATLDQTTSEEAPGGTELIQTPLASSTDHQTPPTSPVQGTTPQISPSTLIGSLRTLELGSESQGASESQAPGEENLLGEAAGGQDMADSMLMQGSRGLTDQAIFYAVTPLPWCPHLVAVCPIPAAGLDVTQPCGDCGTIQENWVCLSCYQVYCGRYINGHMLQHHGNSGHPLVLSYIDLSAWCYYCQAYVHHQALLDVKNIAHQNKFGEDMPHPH
# [20] = Half life in BALB/c mouse at 5 mg/kg, iv; format: ADME, organism-based; parameters: dose 5 mg/kg, route intravenous; details: in vivo
# [21] = Cmax in BALB/c mouse at 20 mg/kg, po; format: ADME, organism-based; parameters: dose 20 mg/kg, route oral; details: in vivo
# [22] = Clearance in BALB/c mouse at 5 mg/kg, iv; format: ADME, organism-based; parameters: dose 5 mg/kg, route intravenous; details: in vivo
# [23] = Tmax in BALB/c mouse at 20 mg/kg, po; format: ADME, organism-based; parameters: dose 20 mg/kg, route oral; details: in vivo
# [24] = system: Mus musculus; test: Toxicity in human HCT116 cells xenografted nude mouse assessed as change in body weight at 30 mg/kg, ip for 20 days; format: organism-based, HCT-116; parameters: dose 30 mg/kg, route intraperitoneal; details: in vivo, 480 h
# [25] = system: HCT-116; test: Antitumor activity against human HCT116 cells xenografted in nude mouse assessed as reduction of tumor volume at 30 mg/kg, ip for 20 days (reference value: 369.8 mm'3); format: functional; details: route intraperitoneal
# [26] = biological target: Histone deacetylase 2 (Homo sapiens, UniProt Q92769); test: Inhibition of HDAC2 by fluorescence assay
# [27] = biological target: T2, Histone deacetylase 8 (Homo sapiens, UniProt Q9BY41); test: Inhibition of HDAC8 by fluorescence assay
# T2 sequence (Q9BY41 whole entry): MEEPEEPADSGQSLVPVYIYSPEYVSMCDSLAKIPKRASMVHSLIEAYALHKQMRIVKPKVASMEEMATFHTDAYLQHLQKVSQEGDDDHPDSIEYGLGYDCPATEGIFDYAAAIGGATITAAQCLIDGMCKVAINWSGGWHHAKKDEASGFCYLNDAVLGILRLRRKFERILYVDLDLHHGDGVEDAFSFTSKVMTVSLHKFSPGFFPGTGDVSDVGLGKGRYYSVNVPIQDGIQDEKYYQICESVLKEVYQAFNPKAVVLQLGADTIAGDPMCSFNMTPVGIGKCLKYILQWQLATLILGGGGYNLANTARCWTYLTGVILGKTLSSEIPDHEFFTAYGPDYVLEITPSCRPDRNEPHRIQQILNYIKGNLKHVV
# [28] = Oral bioavailability in BALB/c mouse at 20 mg/kg; format: ADME, organism-based; details: in vivo
# [29] = AUC (0 to 5 hrs) in BALB/c mouse at 20 mg/kg, po; format: ADME, organism-based; parameters: time < 4 hr, dose 20 mg/kg, route oral; details: plasma
# [30] = biological target: Histone deacetylase 3 (Homo sapiens, UniProt O15379)
# [31] = system: HCT-116; test: Antitumor activity against human HCT116 cells xenografted in nude mouse assessed as inhibition of tumor growth at 30 mg/kg, ip for 20 days relative to control; format: functional; parameters: scale not given: the % may be the effect or the level left; details: route intraperitoneal
# Chain of Histone deacetylase 1 (Q13547 whole entry): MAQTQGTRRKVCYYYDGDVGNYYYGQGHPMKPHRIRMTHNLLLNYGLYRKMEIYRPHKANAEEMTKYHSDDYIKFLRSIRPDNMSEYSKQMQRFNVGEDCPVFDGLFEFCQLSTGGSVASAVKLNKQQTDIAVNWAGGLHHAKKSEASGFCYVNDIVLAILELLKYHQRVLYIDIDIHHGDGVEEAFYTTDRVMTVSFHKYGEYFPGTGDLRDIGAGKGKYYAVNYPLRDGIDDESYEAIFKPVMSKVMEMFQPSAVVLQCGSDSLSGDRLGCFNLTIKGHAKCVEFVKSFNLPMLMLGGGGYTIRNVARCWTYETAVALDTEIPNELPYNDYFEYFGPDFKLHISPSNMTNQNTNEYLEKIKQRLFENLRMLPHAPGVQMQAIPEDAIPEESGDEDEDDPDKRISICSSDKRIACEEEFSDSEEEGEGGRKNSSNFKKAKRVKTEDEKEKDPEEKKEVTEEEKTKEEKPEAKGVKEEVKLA
# Chain of Histone deacetylase 3 (O15379 whole entry): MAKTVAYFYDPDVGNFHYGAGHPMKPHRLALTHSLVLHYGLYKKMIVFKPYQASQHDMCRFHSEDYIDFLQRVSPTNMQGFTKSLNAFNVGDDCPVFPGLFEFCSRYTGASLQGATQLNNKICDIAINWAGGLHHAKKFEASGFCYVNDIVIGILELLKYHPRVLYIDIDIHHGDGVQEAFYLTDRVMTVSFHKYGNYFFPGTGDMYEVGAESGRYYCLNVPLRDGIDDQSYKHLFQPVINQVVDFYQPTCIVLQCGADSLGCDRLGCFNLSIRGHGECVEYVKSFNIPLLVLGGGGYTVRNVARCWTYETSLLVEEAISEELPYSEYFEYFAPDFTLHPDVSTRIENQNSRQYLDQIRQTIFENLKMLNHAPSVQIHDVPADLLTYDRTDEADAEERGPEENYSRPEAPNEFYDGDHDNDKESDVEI
# Chain of Histone deacetylase 2 (Q92769 whole entry): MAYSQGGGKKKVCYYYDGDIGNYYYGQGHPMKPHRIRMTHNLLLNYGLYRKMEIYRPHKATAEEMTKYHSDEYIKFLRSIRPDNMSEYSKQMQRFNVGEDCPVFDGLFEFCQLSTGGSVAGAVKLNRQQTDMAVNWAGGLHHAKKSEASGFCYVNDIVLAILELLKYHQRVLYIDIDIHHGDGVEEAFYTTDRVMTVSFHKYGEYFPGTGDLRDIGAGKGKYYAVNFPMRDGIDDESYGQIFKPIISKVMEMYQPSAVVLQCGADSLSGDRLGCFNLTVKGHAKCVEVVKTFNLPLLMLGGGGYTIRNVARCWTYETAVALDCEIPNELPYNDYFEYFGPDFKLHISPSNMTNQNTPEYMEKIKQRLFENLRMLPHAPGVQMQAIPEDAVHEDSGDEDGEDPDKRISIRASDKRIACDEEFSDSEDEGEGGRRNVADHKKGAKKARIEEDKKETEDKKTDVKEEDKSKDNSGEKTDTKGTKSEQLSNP
structure (smiles),measurement,setting,value
O=C(CCC1=CCCN(CCc2ccccc2)C1=O)NO,GI50,[1],7.76 µM
same,IC50,[2],0.35 µM
same,GI50,[3],30 µM
same,GI50,[4],1.62 µM
same,GI50,[5],5.84 µM
same,GI50,[6],9.84 µM
same,GI50,[7],8.16 µM
O=C(CCC1=CCN(CCCc2ccccc2)C1=O)NO,GI50,[1],4.24 µM
same,IC50,[2],0.05 µM
same,GI50,[8],2.6 µM
same,Papp,[9],9.5 ×10⁻⁶ cm/s
same,GI50,[3],3.46 µM
same,"remaining at 1 h, 1 µM",[10],66.3%
same,GI50,[4],3.81 µM
same,GI50,[5],4.52 µM
same,"remaining at 1 h, 1 µM",[11],66.6%
same,GI50,[6],3.91 µM
same,GI50,[7],6.23 µM
O=C(CCC1=CCN(Cc2ccccc2)C1=O)NO,GI50,[1],30 µM
same,IC50,[2],0.8 µM
same,GI50,[3],30 µM
same,GI50,[4],4.73 µM
same,GI50,[5],30 µM
same,GI50,[6],30 µM
same,GI50,[7],30 µM
O=C(CCC1=CCCN(Cc2ccc3ccccc3c2)C1=O)NO,GI50,[1],6.09 µM
same,IC50,[2],30 µM
same,GI50,[3],30 µM
same,GI50,[4],4.07 µM
same,GI50,[5],30 µM
same,GI50,[6],30 µM
same,GI50,[7],6.82 µM
O=C(CCC1=CCCN(CCCc2ccc3ccccc3c2)C1=O)NO,GI50,[1],5.78 µM
same,IC50,[2],0.14 µM
same,GI50,[4],4.7 µM
same,GI50,[6],3.77 µM
O=C(CCC1=CCN(CCc2ccc3ccccc3c2)C1=O)NO,GI50,[1],0.63 µM
same,IC50,[2],0.05 µM
same,GI50,[8],0.8 µM
same,GI50,[3],0.5 µM
same,"remaining at 1 h, 1 µM",[10],46.6%
same,GI50,[4],0.59 µM
same,GI50,[5],0.61 µM
same,"remaining at 1 h, 1 µM",[11],29.7%
same,GI50,[6],0.34 µM
same,GI50,[7],0.84 µM
O=C(CCC1=CCN(CCc2ccccc2)C1=O)NO,GI50,[1],1.08 µM
same,IC50,[2],0.12 µM
same,GI50,[3],4.29 µM
same,GI50,[4],0.99 µM
same,GI50,[5],30 µM
same,GI50,[6],4.43 µM
same,GI50,[7],5.37 µM
CC(/C=C/C(=O)NO)=C\[C@@H](C)C(=O)c1ccc(N(C)C)cc1,inhibition,[12],Dose-dependent effect
same,inhibition,[13],Dose-dependent effect
O=C(CCC1=CCN(Cc2ccc3ccccc3c2)C1=O)NO,GI50,[1],1.39 µM
same,IC50,[2],0.15 µM
same,GI50,[3],5.19 µM
same,GI50,[4],1.22 µM
same,GI50,[5],7.98 µM
same,GI50,[6],4.88 µM
same,GI50,[7],3.54 µM
O=C(CCC1=CCN(CCc2cccc3ccccc23)C1=O)NO,GI50,[1],6.41 µM
same,IC50,[2],0.36 µM
same,GI50,[8],5.23 µM
same,GI50,[3],5.13 µM
same,"remaining at 1 h, 1 µM",[10],15.1%
same,GI50,[4],4.76 µM
same,GI50,[5],3.71 µM
same,"remaining at 1 h, 1 µM",[11],3.9%
same,GI50,[6],5.76 µM
same,GI50,[7],6.78 µM
O=C(CCC1=CCCN(CCc2ccc3ccccc3c2)C1=O)NO,GI50,[1],0.61 µM
same,IC50,[2],0.04 µM
same,GI50,[8],0.42 µM
same,Papp,[9],19.1 ×10⁻⁶ cm/s
same,GI50,[3],0.54 µM
same,"remaining at 1 h, 1 µM",[10],31%
same,GI50,[4],0.45 µM
same,GI50,[5],0.56 µM
same,"remaining at 1 h, 1 µM",[11],10.3%
same,GI50,[6],0.56 µM
same,GI50,[7],0.79 µM
same,"remaining at 1 h, 1 µM",[14],99.1%
O=C(CCC1=CCCN(Cc2ccccc2)C1=O)NO,GI50,[1],30 µM
same,IC50,[2],0.67 µM
same,GI50,[3],30 µM
same,GI50,[4],4.26 µM
same,GI50,[5],30 µM
same,GI50,[6],30 µM
same,GI50,[7],30 µM
O=C(CCC1=CCCN(CCc2cccc3ccccc23)C1=O)NO,IC50,[2],0.32 µM
O=C(CCC1=CCN(CCCc2ccc3ccccc3c2)C1=O)NO,half-life,[15],38.4 min
same,GI50,[1],0.65 µM
same,IC50,[16],25.6 µM
same,Vd,[17],0.85 L/kg
same,inhibition,[12],Dose-dependent effect
same,AUC(0-inf),[18],890 ng·h/mL
same,IC50,[19],0.8 µM
same,IC50,[2],0.01 µM
same,GI50,[8],0.61 µM
same,Papp,[9],16.3 ×10⁻⁶ cm/s
same,GI50,[3],0.61 µM
same,"remaining at 1 h, 1 µM",[10],71.1%
same,half-life,[20],9 min
same,Cmax,[21],813 ng/mL
same,GI50,[4],0.65 µM
same,clearance,[22],93.7 mL/min/kg
same,GI50,[5],0.82 µM
same,Tmax,[23],15 min
same,Activity,[24],Non-toxic
same,"remaining at 1 h, 1 µM",[11],43.1%
same,GI50,[6],1.09 µM
same,GI50,[7],0.78 µM
same,Activity,[25],242.2 mm3
same,IC50,[26],16.4 µM
same,IC50,[27],120 µM
same,inhibition,[13],Dose-dependent effect
same,bioavailability,[28],8.7%
same,"remaining at 1 h, 1 µM",[14],97.2%
same,AUC(0-t) at 4 h,[29],309 ng·h/mL
same,IC50,[30],80.1 µM
same,Activity,[31],34.4%
O=C(CCC1=CCCN(CCCc2ccccc2)C1=O)NO,IC50,[2],0.27 µM
same,Papp,[9],17.5 ×10⁻⁶ cm/s
same,GI50,[6],6.98 µM
